Values of other authors as cited in US12599677B2, “Targeted PH sensitive liposomes” (Northwestern University, priority 2020, dated 2026).

C=C1CC[C@@H]2[C@](C)(CO)[C@H](O)CC[C@@]2(C)[C@@H]1C/C=C1/C(=O)OC[C@H]1O [andrographolide]
solubility in water: low solubility in water
